Measurements: ChEMBL document CHEMBL3739317, “Design of new phenothiazine-thiadiazole hybrids via molecular hybridization approach for the development of potent antitubercular agents” (Eur J Med Chem, 2015)
In brackets after ≈: the same amount, converted by molar mass. Activity calls are given as the source filed them. The rule behind the calls is not given here.

Experiments:
Pseudomonas aeruginosa [1] = assay: Antibacterial activity against Pseudomonas aeruginosa at 75 ug/ml after 18 to 24 hrs by disc diffusion method; assay type: functional; conditions: read-out: IZ
Escherichia coli [2] = assay: Antibacterial activity against Escherichia coli at 75 ug/ml after 18 to 24 hrs by disc diffusion method; assay type: functional; conditions: read-out: IZ
Staphylococcus aureus [3] = assay: Antibacterial activity against Staphylococcus aureus at 50 ug/ml after 18 to 24 hrs by disc diffusion method; assay type: functional; conditions: for zone of inhibition at 50 µg/mL: read-out: IZ
Escherichia coli [4] = assay: Antibacterial activity against Escherichia coli at 50 ug/ml after 18 to 24 hrs by disc diffusion method; assay type: functional; conditions: read-out: IZ
Vero = assay: Cytotoxicity against African green monkey Vero cells after 72 hrs by MTT assay; assay type: cell-based; conditions: Chlorocebus sabaeus
[5] = Selectivity index, ratio of IC50 for African green monkey Vero cells to MIC for Mycobacterium tuberculosis H37Rv ATCC 27294; assay type: toxicity, cell-based
Staphylococcus aureus [6] = assay: Antibacterial activity against Staphylococcus aureus at 75 ug/ml after 18 to 24 hrs by disc diffusion method; assay type: functional; conditions: for zone of inhibition at 75 µg/mL: read-out: IZ
[7] = test system: Mycobacterium tuberculosis; assay: Antimycobacterial activity against Mycobacterium tuberculosis H37Rv ATCC 27294 after 5 days by microplate alamar blue assay; assay type: functional; conditions: H37Rv ATCC 27294, 120 h
Pseudomonas aeruginosa [8] = assay: Antibacterial activity against Pseudomonas aeruginosa at 50 ug/ml after 18 to 24 hrs by disc diffusion method; assay type: functional; conditions: read-out: IZ

| Compound | zone of inhibition at 75 µg/mL (Pseudomonas aeruginosa [1]) | zone of inhibition at 75 µg/mL (Escherichia coli [2]) | zone of inhibition at 50 µg/mL (Staphylococcus aureus [3]) | zone of inhibition at 50 µg/mL (Escherichia coli [4]) | IC50 (Vero) | selectivity ratio [5] | zone of inhibition at 75 µg/mL (Staphylococcus aureus [6]) | MIC [7] | zone of inhibition at 50 µg/mL (Pseudomonas aeruginosa [8]) | inhibition zone (IZ) (Staphylococcus aureus [3]) | inhibition zone (IZ) (Staphylococcus aureus [6]) |
| --- | --- | --- | --- | --- | --- | --- | --- | --- | --- | --- | --- |
| Cc1nn(CC(=O)N2c3ccccc3Sc3ccc(Cl)cc32)c(=N)s1 | 13 mm | 16 mm | 10 mm | 14 mm | 470 µg/mL (≈ 1210 µM) | 294 | 13 mm | 1.6 µg/mL (≈ 4.11 µM) | 9 mm | – | – |
| O=C(O)c1cn(C2CC2)c2cc(N3CCNCC3)c(F)cc2c1=O [CIPROFLOXACIN] | 21 mm | 32 mm | 21 mm | 27 mm | – | – | 26 mm | 3.12 µg/mL (≈ 9.43 µM) | 18 mm | – | – |
| N=c1sc(-c2ccc(F)cc2)nn1CC(=O)N1c2ccccc2Sc2ccc(Cl)cc21 | 10 mm | 12 mm | 5 mm | 7 mm | 465 µg/mL (≈ 992 µM) | 149 | 9 mm | 3.12 µg/mL (≈ 6.66 µM) | 7 mm | – | – |
| CCCc1nn(CC(=O)N2c3ccccc3Sc3ccc(C(F)(F)F)cc32)c(=N)s1 | 7 mm | 9 mm | 7 mm | 6 mm | 238 µg/mL (≈ 529 µM) | 76.4 | 11 mm | 3.12 µg/mL (≈ 6.94 µM) | 3 mm | – | – |
| CCCc1nn(CC(=O)N2c3ccccc3Sc3ccccc32)c(=N)s1 | 15 mm | 14 mm | 12 mm | 11 mm | 252 µg/mL (≈ 658 µM) | 157 | 16 mm | 1.6 µg/mL (≈ 4.18 µM) | 11 mm | – | – |
| Cc1nn(CC(=O)N2c3ccccc3Sc3ccc(C(F)(F)F)cc32)c(=N)s1 | 15 mm | 20 mm | 14 mm | 15 mm | 350 µg/mL (≈ 828 µM) | 219 | 17 mm | 1.6 µg/mL (≈ 3.79 µM) | 12 mm | – | – |
| CC[C@@H](CO)NCCN[C@@H](CC)CO [ETHAMBUTOL] | – | – | – | – | – | – | – | 3.12 µg/mL (≈ 15.3 µM) | – | – | – |
| CN[C@@H]1[C@H](O[C@H]2[C@H](O[C@H]3[C@H](O)[C@@H](O)[C@H](N=C(N)N)[C@@H](O)[C@@H]3N=C(N)N)O[C@@H](C)[C@]2(O)C=O)O[C@@H](CO)[C@H](O)[C@H]1O [STREPTOMYCIN] | – | – | – | – | – | – | – | 6.25 µg/mL (≈ 10.7 µM) | – | – | – |
| Cc1ccc(-c2nn(CC(=O)N3c4ccccc4Sc4ccc(C(F)(F)F)cc43)c(=N)s2)cc1 | 9 mm | 13 mm | 9 mm | 11 mm | – | – | 11 mm | 50 µg/mL (≈ 100 µM) | 6 mm | – | – |
| COc1ccc(-c2nn(CC(=O)N3c4ccccc4Sc4ccc(Cl)cc43)c(=N)s2)cc1OC | 6 mm | 8 mm | 6 mm | 4 mm | – | – | 8 mm | 50 µg/mL (≈ 97.8 µM) | 4 mm | – | – |
| N=c1sc(-c2cccs2)nn1CC(=O)N1c2ccccc2Sc2ccc(Cl)cc21 | 11 mm | 8 mm | – | 4 mm | – | – | – | 50 µg/mL (≈ 109 µM) | 7 mm | inactive | inactive |
| COc1ccc(-c2nn(CC(=O)N3c4ccccc4Sc4ccccc43)c(=N)s2)cc1OC | 25 mm | 16 mm | 18 mm | 13 mm | – | – | 21 mm | 12.5 µg/mL (≈ 26.2 µM) | 20 mm | – | – |
| N=c1sc(-c2ccc(Cl)cc2)nn1CC(=O)N1c2ccccc2Sc2ccc(Cl)cc21 | 20 mm | 15 mm | 15 mm | 12 mm | 757 µg/mL (≈ 1560 µM) | 473 | 17 mm | 1.6 µg/mL (≈ 3.3 µM) | 15 mm | – | – |
